From US10968200B2, “Salts of an LSD1 inhibitor and processes for preparing the same” (priority 2018, dated 2021)
Structures can show the parent of a compound that is named as a salt. Where two headings read alike, the source gives them in different places.

Legend:
[1] = Solubility measurement of Compound 1 di-HCl in various solvents; type: physicochemical; conditions: thermodynamic from solid; for solubility: by vision; for solubility at 24 h: agitated 24 h
[2] = as above; type: physicochemical; conditions: organic solvent or mixture, thermodynamic from solid; for solubility at 36 h: 25 °C, 25±1° C., agitated 36 h; for solubility at 24 h: 50 °C, 50±1° C., agitated 24 h
Description: The solubility of Compound 1 di-HCl was measured at 25±1° C. and 50±1° C. according to the following procedures.
Compound 1 di-HCl was added to 2 mL of a solvent listed in Table 3 at 25±1° C. until the solution became cloudy. Another 10 mg of Compound 1 di-HCl was then added. The mixture was agitated at 25±1° C. for 36 h. The supernatant was filtered using a syringe filter. The saturated solution was pipetted into an HPLC vial, which was diluted with acetonitrile. The solubility of Compound 1 di-HCl was calculated for each solvent.
Compound 1 di-HCl was added to 2 mL of a solvent listed in Table 3 at 50±1° C. until the solution became cloudy. Another 20-25 mg of Compound 1 di-HCl was then added. The mixture was agitated at 50±1° C. for 24 h. The supernatant was filtered using a warmed syringe filter at 50±1° C. The saturated solution was pipetted into an HPLC vial, which was diluted with acetonitrile. The solubility of Compound 1 di-HCl was calculated for each solvent.

solubility at 36 h ([1]; 25 °C, organic solvent or mixture, solvent 1,4-Dioxane, 25±1° C., agitated 36 h): 200 µg/mL
solubility at 36 h ([1]; 25 °C, organic solvent or mixture, solvent 1-Propanol, 25±1° C., agitated 36 h): 4600 µg/mL
solubility at 36 h ([1]; 25 °C, organic solvent or mixture, solvent 5% Water in ACN, 25±1° C.): > 50000 µg/mL
solubility ([1]; 25 °C, organic solvent or mixture, solvent 5% Water in MeOH, 25±1° C., read-out: Solubility at 25° C.): > 50000 µg/mL
solubility ([1]; 25 °C, organic solvent or mixture, solvent ACN/water (9:1), 25±1° C., read-out: Solubility at 25° C.): > 50000 µg/mL
solubility ([1]; 25 °C, organic solvent or mixture, solvent ACN:Water (4:1), 25±1° C., read-out: Solubility at 25° C.): > 50000 µg/mL
solubility ([1]; 25 °C, organic solvent or mixture, solvent Chloroform, 25±1° C., read-out: Solubility at 25° C.): > 50000 µg/mL
solubility ([1]; 25 °C, organic solvent or mixture, solvent DMF, 25±1° C., read-out: Solubility at 25° C.): > 50000 µg/mL
solubility ([1]; 25 °C, organic solvent or mixture, solvent DMSO, 25±1° C., read-out: Solubility at 25° C.): > 50000 µg/mL
solubility at 36 h ([1]; 25 °C, organic solvent or mixture, solvent EtOH, 25±1° C., agitated 36 h): 3370 µg/mL
solubility at 36 h ([1]; 25 °C, organic solvent or mixture, solvent Ethyl formate, 25±1° C., agitated 36 h): 90 µg/mL
solubility at 36 h ([1]; 25 °C, organic solvent or mixture, solvent MEK, 25±1° C., agitated 36 h): 160 µg/mL
solubility at 36 h ([1]; 25 °C, organic solvent or mixture, solvent MIBK, 25±1° C., agitated 36 h): 60 µg/mL
solubility ([1]; 25 °C, organic solvent or mixture, solvent MeOH/ACN (10 v/3 v), 25±1° C., read-out: Solubility at 25° C.): > 50000 µg/mL
solubility ([1]; 25 °C, organic solvent or mixture, solvent MeOH/Water/ACN (6.0/0.5/1.0), 25±1° C., read-out: Solubility at 25° C.): > 50000 µg/mL
solubility ([1]; 25 °C, organic solvent or mixture, solvent MeOH/water/ACN (6 v/0.5 v/3.5 v), 25±1° C., read-out: Solubility at 25° C.): > 50000 µg/mL
solubility at 36 h ([1]; 25 °C, organic solvent or mixture, solvent MeOH/water/ACN (6 v/1 v/3 v), 25±1° C.): > 50000 µg/mL
solubility ([1]; 25 °C, organic solvent or mixture, solvent MeOH/water/ACN (6 v/1.5 v/3 v), 25±1° C., read-out: Solubility at 25° C.): > 50000 µg/mL
solubility at 36 h ([1]; 25 °C, organic solvent or mixture, solvent THF, 25±1° C., agitated 36 h): 40 µg/mL
solubility ([1]; 25 °C, solvent Water, 25±1° C., read-out: Solubility at 25° C.): > 50000 µg/mL
solubility at 24 h ([1]; 50 °C, organic solvent or mixture, solvent 2-Methoxyethanol, 50±1° C.): 48300 µg/mL
solubility at 24 h ([1]; 50 °C, organic solvent or mixture, solvent 5% Water in ACN, 50±1° C.): 45400 µg/mL
solubility ([1]; 50 °C, organic solvent or mixture, solvent 5% Water in MeOH, 50±1° C., read-out: Solubility at 50° C.): > 50000 µg/mL
solubility ([1]; 50 °C, organic solvent or mixture, solvent ACN/water (9:1), 50±1° C., read-out: Solubility at 50° C.): > 50000 µg/mL
solubility ([1]; 50 °C, organic solvent or mixture, solvent ACN:Water (4:1), 50±1° C., read-out: Solubility at 50° C.): > 50000 µg/mL
solubility at 24 h ([1]; 50 °C, organic solvent or mixture, solvent Acetone, 50±1° C.): 850 µg/mL
solubility ([1]; 50 °C, organic solvent or mixture, solvent Chloroform, 50±1° C., read-out: Solubility at 50° C.): > 50000 µg/mL
solubility ([1]; 50 °C, organic solvent or mixture, solvent DMF, 50±1° C., read-out: Solubility at 50° C.): > 50000 µg/mL
solubility ([1]; 50 °C, organic solvent or mixture, solvent DMSO, 50±1° C., read-out: Solubility at 50° C.): > 50000 µg/mL
solubility at 24 h ([1]; 50 °C, organic solvent or mixture, solvent IPA, 50±1° C.): 1910 µg/mL
solubility ([1]; 50 °C, organic solvent or mixture, solvent MeOH/ACN (10 v/3 v), 50±1° C., read-out: Solubility at 50° C.): > 50000 µg/mL
solubility ([1]; 50 °C, organic solvent or mixture, solvent MeOH/Water/ACN (6.0/0.5/1.0), 50±1° C., read-out: Solubility at 50° C.): > 50000 µg/mL
solubility ([1]; 50 °C, organic solvent or mixture, solvent MeOH/water/ACN (6 v/0.5 v/3.5 v), 50±1° C., read-out: Solubility at 50° C.): > 50000 µg/mL
solubility ([1]; 50 °C, organic solvent or mixture, solvent MeOH/water/ACN (6 v/1 v/3 v), 50±1° C., read-out: Solubility at 50° C.): > 50000 µg/mL
solubility ([1]; 50 °C, organic solvent or mixture, solvent MeOH/water/ACN (6 v/1.5 v/3 v), 50±1° C., read-out: Solubility at 50° C.): > 50000 µg/mL
solubility at 24 h ([1]; 50 °C, organic solvent or mixture, solvent Methanol, 50±1° C.): > 50000 µg/mL
solubility at 24 h ([1]; 50 °C, organic solvent or mixture, solvent n-BuOH, 50±1° C.): 2340 µg/mL
solubility ([1]; 50 °C, solvent Water, 50±1° C., read-out: Solubility at 50° C.): > 50000 µg/mL
solubility ([1]; MeOH/water/ACN (5 v/2 v/3 v), 25 °C, organic solvent or mixture, solvent Me0H/water/ACN (5 v/2 v/3 v), 25±1° C., read-out: Solubility at 25° C.): > 50000 µg/mL
solubility ([1]; MeOH/water/ACN (5 v/2 v/3 v), 50 °C, organic solvent or mixture, solvent Me0H/water/ACN (5 v/2 v/3 v), 50±1° C., read-out: Solubility at 50° C.): > 50000 µg/mL
solubility at 36 h ([2]; solvent 2-Methoxyethanol): 45900 µg/mL
solubility at 36 h ([2]; solvent Acetone): 3490 µg/mL
solubility at 36 h ([2]; solvent IPA): 1310 µg/mL
solubility at 36 h ([2]; solvent MeCN): 610 µg/mL
solubility at 36 h ([2]; solvent Methanol): 32300 µg/mL
solubility at 36 h ([2]; solvent n-BuOH): 1310 µg/mL
solubility at 24 h ([2]; solvent 1,4-Dioxane): 310 µg/mL
solubility at 24 h ([2]; solvent 1-Propanol): 5210 µg/mL
solubility at 24 h ([2]; solvent Dichloromethane): 60 µg/mL
solubility at 24 h ([2]; solvent EtOAc): 30 µg/mL
solubility at 24 h ([2]; solvent EtOH): 3630 µg/mL
solubility at 24 h ([2]; solvent Ethyl formate): 50 µg/mL
solubility at 24 h ([2]; solvent MEK): 160 µg/mL
solubility at 24 h ([2]; solvent MIBK): 130 µg/mL
solubility at 24 h ([2]; solvent MeCN): 6290 µg/mL
solubility at 24 h ([2]; solvent THF): 90 µg/mL
SMILES: N#CCC1(N2CCC(N[C@@H]3C[C@H]3c3ccccc3)CC2)CN(S(N)(=O)=O)C1 [Compound 1 di-HCl, 3-(cyanomethyl)-3-(4-{[(1R,2S)-2-phenylcyclopropyl]amino}piperidin-1-yl)azetidine-1-sulfonamide dihydrochloride]
